According to the NIST ThermoML archive (doi:10.1021/je049743g):
Values joined by “and” are separate entries in the source; they are usually repeats but may differ in a detail not shown here. Identical values can stand only once. ± gives the expanded uncertainty stated by the source.

Assay: wn = mass fraction of the nth substance listed
Conditions: Capillary rise

FC(C(F)(F)F)C(F)(F)F [1,1,1,2,3,3,3-heptafluoropropane] + FCF
Conditions | surface tension liquid-gas
293.83 K, w2 = 0.3843 | 6.74 ± 0.3 mN/m
293.91 K, w2 = 0.7179 | 7.04 ± 0.3 mN/m and 7.05 ± 0.3 mN/m
295.16 K, w2 = 0.3381 | 6.6 ± 0.3 mN/m
295.43 K, w2 = 0.2853 | 6.55 ± 0.3 mN/m
295.48 K, w2 = 0.2853 | 6.53 ± 0.3 mN/m
295.5 K, w2 = 0.7173 | 6.81 ± 0.3 mN/m and 6.83 ± 0.3 mN/m
295.61 K, w2 = 0.5282 | 6.53 ± 0.3 mN/m
296.02 K, w2 = 0.3832 | 6.41 ± 0.3 mN/m and 6.4 ± 0.3 mN/m
296.82 K, w2 = 0.3372 | 6.36 ± 0.3 mN/m
297.36 K, w2 = 0.3826 | 6.2 ± 0.3 mN/m
297.42 K, w2 = 0.2844 | 6.35 ± 0.3 mN/m and 6.32 ± 0.3 mN/m
297.68 K, w2 = 0.5271 | 6.29 ± 0.3 mN/m
297.86 K, w2 = 0.3366 | 6.21 ± 0.3 mN/m
299.17 K, w2 = 0.3817 | 6.01 ± 0.3 mN/m
299.22 K, w2 = 0.2835 | 6.13 ± 0.3 mN/m and 6.1 ± 0.3 mN/m
299.29 K, w2 = 0.3358 | 6.06 ± 0.3 mN/m and 6.07 ± 0.3 mN/m
299.5 K, w2 = 0.7156 | 6.17 ± 0.3 mN/m
299.8 K, w2 = 0.5259 | 6.04 ± 0.3 mN/m and 6.03 ± 0.3 mN/m
301.27 K, w2 = 0.3346 | 5.76 ± 0.3 mN/m
301.41 K, w2 = 0.2825 | 5.8 ± 0.3 mN/m and 5.82 ± 0.3 mN/m
301.58 K, w2 = 0.5249 | 5.78 ± 0.3 mN/m and 5.77 ± 0.3 mN/m
301.63 K, w2 = 0.7146 | 5.9 ± 0.3 mN/m
301.75 K, w2 = 0.3803 | 5.66 ± 0.3 mN/m and 5.69 ± 0.3 mN/m
303.27 K, w2 = 0.3335 | 5.52 ± 0.3 mN/m
303.33 K, w2 = 0.3795 | 5.49 ± 0.3 mN/m and 5.54 ± 0.3 mN/m
303.46 K, w2 = 0.2815 | 5.55 ± 0.3 mN/m
303.55 K, w2 = 0.7137 | 5.59 ± 0.3 mN/m
303.87 K, w2 = 0.5235 | 5.48 ± 0.3 mN/m and 5.44 ± 0.3 mN/m
305.17 K, w2 = 0.3785 | 5.35 ± 0.3 mN/m and 5.33 ± 0.3 mN/m
305.26 K, w2 = 0.3323 | 5.3 ± 0.3 mN/m and 5.29 ± 0.3 mN/m
305.28 K, w2 = 0.2805 | 5.35 ± 0.3 mN/m and 5.37 ± 0.3 mN/m
305.75 K, w2 = 0.7126 | 5.34 ± 0.3 mN/m
306.29 K, w2 = 0.5221 | 5.16 ± 0.3 mN/m and 5.13 ± 0.3 mN/m
307.23 K, w2 = 0.3774 | 5.01 ± 0.3 mN/m and 5.06 ± 0.3 mN/m
307.24 K, w2 = 0.3311 | 5.08 ± 0.3 mN/m
307.36 K, w2 = 0.7118 | 5.04 ± 0.3 mN/m
307.39 K, w2 = 0.5214 | 4.94 ± 0.3 mN/m
307.96 K, w2 = 0.2792 | 5.04 ± 0.3 mN/m and 5.05 ± 0.3 mN/m
309.18 K, w2 = 0.3299 | 4.8 ± 0.3 mN/m
309.34 K, w2 = 0.2785 | 4.87 ± 0.3 mN/m and 4.85 ± 0.3 mN/m
309.43 K, w2 = 0.7107 | 4.7 ± 0.3 mN/m
309.63 K, w2 = 0.3761 | 4.63 ± 0.3 mN/m and 4.67 ± 0.3 mN/m
309.81 K, w2 = 0.5198 | 4.64 ± 0.3 mN/m and 4.63 ± 0.3 mN/m
311.24 K, w2 = 0.3286 | 4.61 ± 0.3 mN/m
311.26 K, w2 = 0.3752 | 4.45 ± 0.3 mN/m and 4.48 ± 0.3 mN/m
311.28 K, w2 = 0.7097 | 4.51 ± 0.3 mN/m
311.62 K, w2 = 0.2773 | 4.59 ± 0.3 mN/m and 4.55 ± 0.3 mN/m
311.74 K, w2 = 0.5186 | 4.38 ± 0.3 mN/m and 4.36 ± 0.3 mN/m
313.21 K, w2 = 0.374 | 4.26 ± 0.3 mN/m and 4.22 ± 0.3 mN/m
313.22 K, w2 = 0.2764 | 4.42 ± 0.3 mN/m
313.26 K, w2 = 0.7086 | 4.22 ± 0.3 mN/m
313.35 K, w2 = 0.5175 | 4.15 ± 0.3 mN/m and 4.17 ± 0.3 mN/m
313.51 K, w2 = 0.3271 | 4.32 ± 0.3 mN/m
315.28 K, w2 = 0.326 | 4.12 ± 0.3 mN/m and 4.13 ± 0.3 mN/m
315.3 K, w2 = 0.3728 | 4.06 ± 0.3 mN/m and 4.09 ± 0.3 mN/m
315.39 K, w2 = 0.7074 | 3.96 ± 0.3 mN/m
315.43 K, w2 = 0.2752 | 4.14 ± 0.3 mN/m and 4.13 ± 0.3 mN/m
315.61 K, w2 = 0.5159 | 3.88 ± 0.3 mN/m
317.24 K, w2 = 0.3247 | 3.88 ± 0.3 mN/m
317.3 K, w2 = 0.7064 | 3.7 ± 0.3 mN/m
317.43 K, w2 = 0.2742 | 3.91 ± 0.3 mN/m and 3.89 ± 0.3 mN/m
317.69 K, w2 = 0.5145 | 3.61 ± 0.3 mN/m and 3.63 ± 0.3 mN/m
318.29 K, w2 = 0.371 | 3.63 ± 0.3 mN/m and 3.62 ± 0.3 mN/m
319.25 K, w2 = 0.3234 | 3.64 ± 0.3 mN/m
319.52 K, w2 = 0.705 | 3.38 ± 0.3 mN/m
319.58 K, w2 = 0.273 | 3.7 ± 0.3 mN/m and 3.67 ± 0.3 mN/m
319.63 K, w2 = 0.3702 | 3.5 ± 0.3 mN/m
320 K, w2 = 0.5129 | 3.33 ± 0.3 mN/m and 3.32 ± 0.3 mN/m
321.27 K, w2 = 0.3692 | 3.29 ± 0.3 mN/m
321.3 K, w2 = 0.322 | 3.39 ± 0.3 mN/m and 3.38 ± 0.3 mN/m
321.31 K, w2 = 0.7039 | 3.12 ± 0.3 mN/m
321.42 K, w2 = 0.5118 | 3.13 ± 0.3 mN/m and 3.14 ± 0.3 mN/m
321.54 K, w2 = 0.2719 | 3.45 ± 0.3 mN/m and 3.42 ± 0.3 mN/m
323.2 K, w2 = 0.3207 | 3.23 ± 0.3 mN/m
323.5 K, w2 = 0.7025 | 2.88 ± 0.3 mN/m and 2.87 ± 0.3 mN/m
323.69 K, w2 = 0.2707 | 3.19 ± 0.3 mN/m
323.72 K, w2 = 0.5102 | 2.92 ± 0.3 mN/m
323.76 K, w2 = 0.3677 | 3.03 ± 0.3 mN/m and 3.01 ± 0.3 mN/m
325.23 K, w2 = 0.3193 | 3.04 ± 0.3 mN/m
325.29 K, w2 = 0.3668 | 2.85 ± 0.3 mN/m
325.3 K, w2 = 0.7013 | 2.63 ± 0.3 mN/m
325.42 K, w2 = 0.2697 | 2.96 ± 0.3 mN/m and 2.95 ± 0.3 mN/m
325.89 K, w2 = 0.5085 | 2.57 ± 0.3 mN/m and 2.59 ± 0.3 mN/m
327.16 K, w2 = 0.2688 | 2.8 ± 0.3 mN/m and 2.78 ± 0.3 mN/m
327.31 K, w2 = 0.3656 | 2.59 ± 0.3 mN/m and 2.58 ± 0.3 mN/m
327.31 K, w2 = 0.7 | 2.43 ± 0.3 mN/m and 2.44 ± 0.3 mN/m
327.4 K, w2 = 0.3179 | 2.74 ± 0.3 mN/m and 2.73 ± 0.3 mN/m
327.68 K, w2 = 0.5072 | 2.37 ± 0.3 mN/m and 2.38 ± 0.3 mN/m
329.3 K, w2 = 0.3166 | 2.54 ± 0.3 mN/m
329.34 K, w2 = 0.6987 | 2.15 ± 0.3 mN/m and 2.16 ± 0.3 mN/m
329.35 K, w2 = 0.5059 | 2.18 ± 0.3 mN/m and 2.19 ± 0.3 mN/m
329.37 K, w2 = 0.2676 | 2.6 ± 0.3 mN/m and 2.59 ± 0.3 mN/m
329.44 K, w2 = 0.3643 | 2.43 ± 0.3 mN/m
331.47 K, w2 = 0.5043 | 2.01 ± 0.3 mN/m
331.57 K, w2 = 0.315 | 2.24 ± 0.3 mN/m
331.61 K, w2 = 0.6971 | 1.87 ± 0.3 mN/m
331.65 K, w2 = 0.2663 | 2.36 ± 0.3 mN/m and 2.37 ± 0.3 mN/m
331.73 K, w2 = 0.3629 | 2.15 ± 0.3 mN/m
333.37 K, w2 = 0.2654 | 2.19 ± 0.3 mN/m
333.4 K, w2 = 0.3138 | 2.06 ± 0.3 mN/m
333.48 K, w2 = 0.3618 | 1.95 ± 0.3 mN/m
333.48 K, w2 = 0.6959 | 1.63 ± 0.3 mN/m
333.55 K, w2 = 0.5028 | 1.75 ± 0.3 mN/m and 1.72 ± 0.3 mN/m
